In patent publication US20050288270A1, “New aminopyridine derivatives and their use as pharmaceuticals” (Pfizer Inc, priority 2004, published 2005):

Legend:
D2 receptor = D2 receptor (Homo sapiens, UniProt P14416); assay: D3/D2 agonist assay, functional response at D2 receptor; type: cell-based; details: at 1000 nM; relative to the maximal effect of pramipexole
Method: (§1) Activity at the dopamine D3 receptor may be determined using the methods described in WO 2004/052372. […] Selectivity is calculated as the D2 EC50 value divided by the D3 EC50 value. Where the value of the D2 EC50 was >10000, a figure of 10000 was used in the calculation.

dopamine D3 receptor = dopamine D3 receptor (Homo sapiens, UniProt P35462); assay: D3/D2 agonist assay, functional potency at D3 receptor; type: cell-based
Method: as §1

dopamine D3 receptor, sequence (P35462 whole entry): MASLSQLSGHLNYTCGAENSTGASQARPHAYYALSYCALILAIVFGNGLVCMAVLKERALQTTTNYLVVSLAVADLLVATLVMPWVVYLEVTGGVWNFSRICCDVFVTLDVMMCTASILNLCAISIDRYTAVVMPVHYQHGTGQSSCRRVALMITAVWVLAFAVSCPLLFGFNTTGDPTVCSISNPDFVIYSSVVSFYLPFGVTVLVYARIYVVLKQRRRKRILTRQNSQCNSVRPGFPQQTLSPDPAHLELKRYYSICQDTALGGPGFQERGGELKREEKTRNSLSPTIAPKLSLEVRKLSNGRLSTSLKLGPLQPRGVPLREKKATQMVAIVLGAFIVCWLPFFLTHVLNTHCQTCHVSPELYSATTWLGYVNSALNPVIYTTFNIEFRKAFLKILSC
D2 receptor, sequence (P14416 whole entry): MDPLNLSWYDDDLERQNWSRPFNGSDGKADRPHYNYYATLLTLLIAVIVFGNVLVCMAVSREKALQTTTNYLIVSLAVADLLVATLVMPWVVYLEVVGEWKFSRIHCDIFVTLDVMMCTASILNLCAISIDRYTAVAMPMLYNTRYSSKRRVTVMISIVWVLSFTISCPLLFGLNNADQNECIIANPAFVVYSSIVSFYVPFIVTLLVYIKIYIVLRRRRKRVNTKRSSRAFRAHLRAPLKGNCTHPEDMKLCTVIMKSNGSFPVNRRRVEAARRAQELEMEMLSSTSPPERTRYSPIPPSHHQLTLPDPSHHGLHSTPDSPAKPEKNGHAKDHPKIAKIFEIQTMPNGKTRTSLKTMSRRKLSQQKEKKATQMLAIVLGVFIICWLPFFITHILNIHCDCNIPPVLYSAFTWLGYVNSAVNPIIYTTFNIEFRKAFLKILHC

In the case of CCCN1CC(c2ccc(N)nc2)OCC1CO (single isomer, unassigned) [Example 14, [6-(6-Aminopyridin-3-yl)-4-propylmorpholin-3-yl]methanol], the “response against the D2 receptor” value (D2 receptor) is reported as 22%, the EC50 (dopamine D3 receptor; agonist, read-out: functional potency at the D3 receptor, expressed as an EC50) is reported as 20 nM and the Emax (dopamine D3 receptor; relative to the maximal effect of standard agent pramipexole, read-out: Emax (maximal response value)) is reported as 98%.
